Reference: patent US10669275B2 (priority 2015, dated 2020)
One block for each molecule: values may come before it.

Key:
[1] = twelve weeks at 40° C. and 75% relative humidity
[2] = at about pH 8; cited from earlier work
[3] = 3 tons pressure 1 min; strong grinding dry or with a drop of water, ethanol or isopropanol; 100° C. for 30 minutes; 1 week 100% relative humidity at room temperature
Procedure: The analysis of was performed on ARL (SCINTAG) powder X-Ray diffractometer model X'TRA equipped with a solid stage detector.
Scanning parameters: range: 2-40 degrees two-theta; scan mode: continuous scan; step size: 0.05°, and a rate of 3 deg/min.

[4] = wettability by contact angle measurement; assay type: physicochemical; conditions: water drops (2 μL) on pellet pressed at 2 t*cm^−2
Procedure: The wettability of the below compounds was determined by contact angle measurement. For this purpose, the substances were pressed (2 t*cm^−2) to a pellet. On each pellet were placed three water drops (2 μL) on three individual measurement points and the contact angle was measured with the apparatus OCA40 (DataPhysics Instruments) on two sides of the drop.

solid form after storage (XRPD, FIG. 15) [1]: transformed into ibrutinib Form A
SMILES: C=CC(=O)N1CCC[C@@H](n2nc(-c3ccc(Oc4ccccc4)cc3)c3c(N)ncnc32)C1 [Ibrutinib Form E, 1-[(3R)-3[4-Amino-3-(4-phenoxyphenyl)-1H-pyrazolo[3,4-d]pyrimidin-1-yl]piperidin-1-yl]prop-2-en-lone]

SMILES: C=CC(=O)N1CCC[C@@H](n2nc(-c3ccc(Oc4ccccc4)cc3)c3c(N)ncnc32)C1 [Ibrutinib free base form A, 1-[(3R)-3[4-Amino-3-(4-phenoxyphenyl)-1H-pyrazolo[3,4-d]pyrimidin-1-yl]piperidin-1-yl]prop-2-en-lone]
observed aqueous solubility [2]: about 0.013 mg/ml

SMILES: C=CC(=O)N1CCCC(n2nc(-c3ccc(Oc4ccccc4)cc3)c3c(N)ncnc32)C1.C=CC(=O)N1CCCC(n2nc(-c3ccc(Oc4ccccc4)cc3)c3c(N)ncnc32)C1.O=C(O)C=CC(=O)O (stereo not shown) [ibrutinib:fumaric acid]
XRPD pattern after stress-tests [3]: No change was observed in the XRPD pattern

contact angle θ [4]: incapable of measurement*
SMILES: C=CC(=O)N1CCC[C@@H](n2nc(-c3ccc(Oc4ccccc4)cc3)c3c(N)ncnc32)C1.C=CC(=O)N1CCC[C@@H](n2nc(-c3ccc(Oc4ccccc4)cc3)c3c(N)ncnc32)C1.O=C(O)CCC(=O)O [ibrutinib:succinic acid]
